Source: patent publication US6080750A, “Pyrimidine compound and anti-rotavirus composition” (priority 1996, dated 2000)
Converted amounts (≈) assume the structure as drawn. Like-named read-outs stand apart in the source and are kept apart here.

Assays:
[1] = system: male ICR mice; experiment: Toxicity test (mouse acute toxicity, minimum lethal dose); assay type: in vivo; conditions: oral (po), male ICR mice fasted overnight, survival 14 days
Description: A test compound was orally administered to male ICR mice (weight 25-35 g) fasted overnight, and survival thereof was monitored for 14 days.

[2] = system: rotavirus SA-11 strain; experiment: Determination of antiviral activity (50% plaque reduction method); assay type: cell-based, rotavirus SA-11 (in CV-1 green monkey kidney cells); conditions: for antiviral index (ED50 /ID50): ED50 CV-1 cells / ID50 rotavirus SA-11; for IC50: 96 h, read-out: ID50 (50% plaque inhibition dose), rotavirus SA-11
Experimental: Determination of activity of test compound against rotavirus and evaluation thereof
rotavirus: To a liquid containing preserved rotavirus SA-11 strain was added trypsin (Sigma, acetylated trypsin type V-S) to 10 μg/ml and incubated at 37° C. for 30 minutes to activate the […], after which the culture was diluted to a concentration of 50 plaque forming units (PFU)/0.1 ml with Eagle's minimum essential medium (MEM) and used for the determination.
(§1) cultured cell: CV-1 cells which are green monkey kidney cell line were cultured in MEM supplemented with 10% calf serum. The culture cells were prepared to a concentration of 4×10^5 cells/ml, plated on a 24 well microplate and cultured for 2 days before use for the determination.
Activated rotavirus SA-11 […] were inoculated at 50 PFU/0.1 ml to CV-1 cells cultured in a monolayer on a 24 well microplate. The virus was allowed to adsorb to the cells in 1.5 hours at 37° C. and the surface layer of the cells was washed three times with MEM. Then, a multilayer agar medium (mixed medium of MEM, 3 μg/ml acetylated trypsin and agar at final concentration of 0.8%, all added at 45° C.) containing aliquot of test compounds was superposed on the cell layer. The cells were incubated at 37° C. for 4 days, immobilized with formalin, stained with a crystal violet solution and counted for plaque number.
The antiviral activity was expressed by the concentration of the test compound (50% plaque inhibition dose: ID50 =μg/ml), which decreased plaques formed in the control cell culture without the test compound, by 50%.
ED50 value was divided by ID50 value and the obtained value was used as an antiviral index for the determination of selective anti-rotaviral activity on infected cells in comparison to that on normal cells (host cells).

[3] = Determination of cytotoxicity (50% cell growth inhibition effect); assay type: cell-based, green monkey; conditions: monkey; CV-1 cells, 2 days, cell count; read-out: ED50 (50% cell growth inhibition effect dose), CV-1 cells
Experimental: as §1
CV-1 cells were prepared to a concentration of 4×10^4 cells/ml with MEM containing 10% calf serum and plated on a 24 well microplate, which was followed by culture for 2 days. The culture solution thereof was changed to MEM containing 10% calf serum and serially diluted test compounds at various concentrations, and the cells were cultured for 2 days. The cells were prepared into a homogeneous single cell suspension using 0.1% crude trypsin, and counted with a Coulter counter Model D (Coulter Electronics Ltd., England).
The 50% cell growth inhibition effect dose (ED50 =μg/ml) was expressed by the concentration of the test compound, which decreased cell numbers in the control cell culture without the test compound, by 50%.

[4] = in Chlorocebus sabaeus, rotavirus SA-11 50 PFU, CV-1 cells, 37° C., 4 days, plaque count
[5] = Rotavirus, CV-1, in Chlorocebus sabaeus

Row | IC50 [2, 4] | SMILES | mouse acute toxicity [lethal dose] (minimum lethal dose) [1] | antiviral index (ED50 /ID50) [2] | CC50 at 48 h [3] | IC50 [2, 5]
1 | – | Nc1c(Cl)ncnc1NCC1(CO)CCC1 [compound 18] | > 500 mg/kg | – | – | –
2 | 3.5 µg/mL (≈ 13.5 µM) | CCC(CC)(CO)CNc1cc(Cl)nc(N)n1 [compound 23] | – | 23 | 80 µg/mL (≈ 309 µM) | –
3 | 1.1 µg/mL (≈ 4.48 µM) | CC(C)(CO)CNc1nc(N)nc(Cl)c1N [compound 24] | – | 51.1 | 56.2 µg/mL (≈ 229 µM) | –
4 | 0.2 µg/mL (≈ 0.731 µM) | CCC(CC)(CO)CNc1nc(N)nc(Cl)c1N [compound 25] | – | 150.0 | 30 µg/mL (≈ 110 µM) | –
5 | – | Nc1nc(Cl)cc(NCC2(O)CCC2)n1 [compound 28] | – | > 10 | > 30 µg/mL | 3 µg/mL (≈ 13.1 µM)
6 | – | Nc1nc(Cl)cc(NCC2(CO)CC(OCc3ccccc3)C2)n1 (centres unmarked) [compound 39] | > 500 mg/kg | – | – | –
7 | – | Nc1nc(Cl)cc(NCC2(CO)CC(Cc3ccccc3)C2)n1 (centres unmarked) [compound 43] | > 500 mg/kg | – | – | –
8 | – | Nc1nc(Cl)cc(NCC2(CO)CC(CCc3ccccc3)C2)n1 (centres unmarked) [compound 44] | > 500 mg/kg | – | – | –
9 | – | Nc1nc(Cl)cc(NCC2(CO)CC(c3ccccc3)C2)n1 (centres unmarked) [compound 47] | > 500 mg/kg | – | – | –
10 | – | Nc1nc(Cl)cc(NCC2(CO)CCCC2)n1 [compound 48] | > 500 mg/kg | – | – | –
11 | – | Nc1nc(Cl)c(N)c(NCC2(CO)CC2)n1 [compound 58] | > 1000 mg/kg | > 67 | > 100 µg/mL | 1.5 µg/mL (≈ 6.16 µM)
12 | 2.2 µg/mL (≈ 9.23 µM) | COc1cc(NCC2(CO)CCC2)nc(N)n1 [compound 86] | – | – | – | –
13 | 12.6 µg/mL (≈ 40.1 µM) | Nc1nccc(NCC2(CO)CC(OCc3ccccc3)C2)n1 (centres unmarked) [compound No. 3] | – | – | – | –
14 | – | Nc1nccc(NCC2(CO)CC(CCc3ccccc3)C2)n1 (centres unmarked) [compound No. 5] | > 500 mg/kg | – | – | –
15 | – | Nc1ncc(Br)c(NCC2(CO)CC(CCc3ccccc3)C2)n1 (centres unmarked) [compound No. 7] | > 500 mg/kg | – | – | –
16 | 10.5 µg/mL (≈ 45.5 µM) | CC(C)(CO)CNc1cc(Cl)nc(N)n1 [compound No. 20, 2-Amino-6-chloro-4-[(3-hydroxy-2,2-dimethylpropyl)amino]pyrimidine] | – | > 9.5 | > 1 µg/mL | –
17 | – | Cl.Cl.Nc1nc(Cl)c(N)c(NCCO)n1 [compound No. 112, 6-Chloro-2,5-diamino-4-[(2-hydroxyethyl)amino]pyrimidine dihydrochloride] | > 1000 mg/kg | – | – | –

Row | SMILES | IC50 [2, 4] | mouse acute toxicity [lethal dose] (minimum lethal dose) [1] | antiviral index (ED50 /ID50) [2] | CC50 at 48 h [3] | IC50 [2, 5]
18 | Nc1nc(Cl)c(N)c(NCC2(CO)CCC2)n1 [compound 59] | 1.9 µg/mL (≈ 7.37 µM) | > 500 mg/kg | 2 | 3.6 µg/mL (≈ 14 µM) | –
19 | Nc1nc(O)c(N)c(NCC2(CO)CC2)n1 [compound 104] | 0.6 µg/mL (≈ 2.66 µM) | > 1000 mg/kg | – | – | –
20 | Nc1ncc(Br)c(NCC2(CO)CCC2)n1 [compound No. 6, 2-Amino-5-bromo-4-[[(1-hydroxymethyl-1-cyclobutyl)methyl]amino]pyrimidine] | 2.9 µg/mL (≈ 10.1 µM) | > 500 mg/kg | – | – | –
21 | Nc1nc(Cl)cc(NCC2(CO)CCC2)n1 [compound No. 35, 2-Amino-6-chloro-4-[[(1-hydroxymethyl-1-cyclobutyl)methyl]amino]-pyrimidine] | 7.8 µg/mL (≈ 32.1 µM) | > 500 mg/kg | – | – | –
22 | Nc1nc(Cl)c(N)c(NCCCO)n1 [compound No. 113, 6-Chloro-2,5-diamino-4-[(3-hydroxypropyl)amino]pyrimidine] | 2.6 µg/mL (≈ 11.9 µM) | > 1000 mg/kg | > 38 | > 100 µg/mL | –
